Reference: patent publication US10059699B2, “Tetrahydroquinoline derivatives as bromodomain inhibitors” (GlaxoSmithKline Intellectual Property (No.2) Limited, priority 2014, dated 2018)
Where two headings read alike, the source gives them in different places. Marks after values point to notes of the source that are not given here.

Columns and labels:
TNFα = assay: LPS induced secretion of TNFα from whole blood; format: cell-based; conditions: human whole blood, LPS 200 ng/mL, n=4; read-out: pIC50, LPS induced TNFα secretion (converted)
From the text: Activation in whole blood of predominantly monocytic cells by agonists of toll-like receptors such as bacterial lipopolysaccharide (LPS) results in production of key inflammatory mediators, including TNFα. Such pathways are widely considered to be central to the pathophysiology of a range of auto-immune and inflammatory disorders.
Human Whole Blood from 2 donors (n=2) is collected using Sodium heparin as anti-coagulent (Wockhardt cat# FP1712) (10 units of heparin/mL of blood). Compounds were prepared as [10 mM] DMSO stocks and then diluted such that the top starting concentration was [1.4 mM] followed by 8×3-fold dilutions in DMSO. Final assay concentrations start at [10 μM] for all compounds. 1 μL diluted compound was added per well in a 96-well U bottom plate. 1 μL DMSO only was added to column 10 (+ve control) and 1-((2S,4R)-2-methyl-4-(phenylamino)-6-(4-(piperidin-1-ylmethyl)phenyl)-3,4-dihydroquinolin-1(2H)-yl)ethanone (for a preparation see Compound 28, J. Med. Chem. 2014, 57, 8111-8131, 1 μL, 1.4 mM) added to column 11 (−ve control). […] 150 μL of 2×MSD Read Buffer T (stock 4×MSD Read Buffer T was diluted 50:50 with de-ionised water) was then added to each well and the plates read on the MSD Sector Imager 6000. Concentration response curves for each compound were generated from the data using internal XC50 analysis and an IC50 value was calculated.

Immunoglobulin-1 (IgG1) = assay: TNP-KLH induced IgG1 production mouse assay; format: in vivo, mice; conditions: 30 mg/kg oral; for Day 14 IgG1: 14 day dosing, male CD1 mice; for % reduction in IgG1 from vehicle: day 14
Experimental: The compound was assayed for its ability to inhibit trinitrophenol-keyhole limpet hemocyanin (TNP-KLH) induced Immunoglobulin-1 (IgG1) production in mice. Male CD1 mice (Charles River Laboratories, 8 per group) received a single oral administration of compound (in 1% (w/v) methylcellulose, aq 400) either once every day (QD), once every other day (QOD) or once every 72 hours (QOED) over a 14 day dosing period. On day 1 of the study, each mouse received a single bolus intraperitoneal (ip) administration of TNP-KLH (100 μg/kg, T-5060-25, Lot #021562-06) 1 hour after oral administration of compound. Serial blood samples were collected at 1 hour post oral compound administration via tail veil on days 1, 4, 7, 9 and 11 or via cardiac puncture (terminal sample) on day 14 and the serum harvested from the blood samples was frozen at −80° C. On the day of analysis, the serum was thawed to room temperature and levels of IgG1 were measured using a TNP ELISA (developed in-house) and read on a SpectraMax 190 spectrophotometer (Molecular Devices, CA). The mean IgG1 values were generated and the mean percent IgG1 reduction on day 14 following treatment with compound was calculated compared to the corresponding vehicle treated group. Levels of significance were calculated by analysis of variance (ANOVA) followed by Dunnett's multiple comparison t-test using Graphpad Prism version 5.04 (Graphpad Software, San Diego, Calif.). Statistical differences were determined as […].

[1] = test system: NUT midline carcinoma cells (11060); assay: Cancer cell line proliferation assay, 11060; format: cell-based; conditions: 11060 cells, 72 hours, CellTiter Glo, n = 3
Experimental: The impact of the compound of Examples 7 and 14 on cancer cell proliferation was determined using patient derived NUT midline carcinoma cells (11060), multiple myeloma cells (OPM-2, DSMZ) and biphenotypic B myelomonocytic leukaemia cells (MV-4-11, ATCC) in a 72 hour proliferation assay. 11060 and OPM-2 cells were maintained in RPMI 1640 medium (Invitrogen) supplemented with 10% HI-FBS (Heat-Inactivated Fetal Bovine Serum, Hyclone) and 2 mM L-glutamine (Invitrogen) at 37° C. and an atmosphere of 5% CO2. MV-4-11 cells were maintained in IMDM media supplemented with 10% HI-FCS, 2 mM L-glutamine, 1× Non-essential amino acids (Invitrogen) and 1× sodium pyruvate (1 mM) (Invitrogen). Cells were diluted to 1.11×10^5 cells/mL and 90 μL/well plated into black sided, clear bottomed 96 well tissue culture plates (Corning), using growth media supplemented with penicillin/streptomycin (Invitrogen). Cells were incubated overnight at 37° C. and in one plate, ATP levels were measured using the CellTiter Glo assay (Promega) according to the manufacturer's instructions, to give a baseline reading (t=0). 3-fold serial dilutions of compounds ranging from 6 mM to 0.3 μM were prepared in 100% DMSO. The DMSO dilution series was diluted 20-fold in growth media before 10 μl of the resulting dilutions were added to the appropriate wells of the remaining cell plates. The final compound concentrations in the wells ranged from 30 μM to 1.5 nM in 0.5% DMSO. Cells were incubated with compounds for 72 hours before assaying for ATP content using CellTiter Glo (t=72). CellTiter Glo data from each t=72 time point was normalised to the relevant t=0 time point data, and expressed as % t=0.

Structure (SMILES): CC(=O)N1c2ccc(C(N)=O)cc2[C@H](Nc2ncc(Cl)cn2)C[C@@H]1C [Example 14, (2S,4R)-1-acetyl-4-((5-chloropyrimidin-2-yl)amino)-2-methyl-1,2,3,4-tetrahydroquinoline-6-carboxamide]
- IC50 (TNFα): 63.1 nM
- Day 14 IgG1 (Immunoglobulin-1 (IgG1); QD): 127 ng/mL
- % reduction in IgG1 from vehicle (Immunoglobulin-1 (IgG1); QD): 98*** %
- Day 14 IgG1 (Immunoglobulin-1 (IgG1); QOD): 373 ng/mL
- % reduction in IgG1 from vehicle (Immunoglobulin-1 (IgG1); QOD): 93*** %
- Day 14 IgG1 (Immunoglobulin-1 (IgG1); QOED (every 72 hours)): 3162 ng/mL
- % reduction in IgG1 from vehicle (Immunoglobulin-1 (IgG1)): 41%
- IC50 ([1]; full curve fit, read-out: Cellular Proliferation: pIC50 (converted)): 1000 nM
- IC50 ([1]; read-out: Cellular Proliferation: gpIC50 (converted)): 631 nM
